≈ marks a conversion by molar mass, not a printed value.
Columns and labels:
rabbit ear vein = assay: Acute local venous toxicity / irritation in the rabbit ear vein (REV); format: in vivo; parameters: Erythema / Edema: scale not given here
Source text: This Example illustrates the protective effect of the formulations of the invention as measured by irritation in the rabbit ear vein (REV). A typical protocol for evaluation of the local tolerance for formulations was as follows.
Dosing of animals. The rabbits used were male New Zealand rabbits weighing approximately 2.5 to 4 kg. The rabbits were acclimatized for a period of 10 days following receipt before the start of the study. The rabbits were randomized into groups based on the number of formulations to be studied. Typically 3 rabbits were used per group.
For each group of rabbits, the formulation containing the drug to be tested was dosed in the right marginal ear vein, with the corresponding placebo being dosed at the same time in the left marginal ear vein. The placebos were prepared such that they matched the formulation composition, and the technique of dosing for the drug formulations and the placebo formulations were kept the same. Typical dosing volumes ranged from 1 mL/kg to 5 mL/kg. The formulations were either dosed as (a) bolus injection wherein the entire dosing volume was administered within 5 minutes; (b) 30 minute infusion; or (c) a 2 hour infusion. The formulations were administered through appropriately sized syringes and catheters. The injection sites were marked with indelible ink for identification at each observation period. The rabbits were dosed based upon the Day 1 body weight.
Observation of animals. Each animal was observed cage side at least twice daily for mortality/morbundity. Each animal received a detailed clinical observation once prior to randomization, once prior to dosage administration and once daily thereafter.
Any abnormalities were recorded as they were observed. Observations for local irritation were scored according to the following scale
At each interval the area of irritation (if present) was also measured. The actual length and width in mm was recorded.
On day 3 the animals were euthanized and the tissues from the Pinna of the left and right ear, and any gross lesions (if present) of the ear or ear vein were collected. Histopathology was performed on the collected tissues. After fixation, the pinna was tripped into a total of 4 sections of 1 cm each; one of which included the deposition site (location of the end of the catheter in the ear) and one from approximately 1-, 2-, and 3-cm downstream from the deposition site. Each section included skin, cartilage, vein and other soft tissue. These tissues were then embedded in paraffin, sectioned and stained with hematoxylin and eosin, and examined via light microscopy.

[1] = Long-term storage stability of emulsions (assay, pH, particle size); format: physicochemical; conditions: Compound A emulsions; over 14 months at any of the storage conditions tested
Experimental: Calcimimetics emulsions for long-term studies were prepared at 5 mg/mL drug concentration, 5% SBO, 2% egg lecithin, 2% glycerin, 20 mM TRIS buffer at pH 9. The emulsions were packed in glass vials at 20 mL each and stored inverted in stability chambers. At each time-point, 3 vials from each chamber were pulled and analyzed for the calcimimetic concentration, pH and particle size. […] The values for pH dropped over time, with greater magnitude of drop seen at higher temperature.

[2] = Loss in drug strength due to adsorption to PVC tubing; format: physicochemical
Experimental: A solution of compound A was prepared in acetate mannitol buffer at pH 4. At this pH, the compound forms a clear solution of concentration 0.2 mg/mL. An equivalent emulsion was prepared at the same concentration with 5% soybean oil, 2% lecithin, 2% glycerin and 20 mM TRIS buffer at pH 9. PVC tubing was selected as an example of commonly used intravenous infusion set. 15 cm sections of this tube were filled with either the solution or emulsion formulation and clamped on both ends. These filled tubes were held at the ambient temperature for 1 hour. The formulations inside were collected and analyzed for drug content using reversed phase HPLC. […] Panel A: Compound A in acetate/mannitol solution, pre-exposure. Panel B: compound A in acetate/mannitol solution, after 1 hour of exposure to the PVC tubing. Panel C: compound A formulated in the emulsion of the invention, pre-exposure. Panel D: compound A formulated in the emulsion of the invention, pre-exposure, after 1 hour of exposure to the PVC tubing.

[3] = Solubility of calcimimetics in oil phases (RP-HPLC); format: physicochemical; conditions: long-chain oil phases; for solubility at 18 h: oil or lipid, thermodynamic from solid
Experimental: The solubility measurements of the compounds were prepared by the addition of 1 g of drug substance to two milliliters of oil into a Wheaton 5 mL vial. The headspace was sparged with nitrogen, and enclosed with a West 4405/50 gray Teflon coated stopper and manually sealed by an aluminum overseal. The preparations were repeated again with the oils containing either purified egg or soy lecithin. All labeled vials were shaken at room temperature for eighteen hours on a platform shaker. After eighteen hours, the samples were diluted in mobile phase, and analyzed by the RP-HPLC method. Table 2 summarizes solubility results (expressed in mg/mL) of cinacalcet in various oil phases.

[4] = Zeta potential titration of emulsions (droplet charge vs pH); format: physicochemical; conditions: SBO 10%, Lecithin 2% at pH 7; 5 mg/mL (formulation #1) versus 1 mg/mL (formulation #2)
Experimental: Panel A, titration results of 1% EYP/10% SBO in 1 mM dibasic phosphate. Panel B, titration results of cinacalcet/1% EYP/10% SBO in 1 mM dibasic phosphate. Other components of the emulsions include 10% soybean oil, 1% egg lecithin, 2.25% glycerin and water. Panel C, titration results for Compound A. Emulsion composition: SBO 10%, Lecithin 2% at pH 7. Concentration of Compound A was 5 mg/mL for formulation #1 and 1 mg/mL for formulation #2.
The zeta potential measurements were made on a Malvern Zetasizer 4 laser-scattering particle electrophoretic analyzer that measures the electrophoretic mobility and zeta potential distribution. Samples were prepared for the zeta potential titration by diluting the emulsion approximately 2500 fold in 1 mM dibasic phosphate pH 9 and titrating the solution with 100 mM phosphoric acid in 0.5 pH unit increments. […] Theoretically, the emulsions are stabilized by this charge, which prevents the droplets from coalescing. […] In contrast, the cinacalcet emulsions achieve charge neutrality in the range of pH 7-7.5.

cytochrome P450 2D6 = cytochrome P450 2D6 (Homo sapiens, UniProt P10635); conditions: stated as known; cited from earlier work
Sequence of cytochrome P450 2D6 (P10635 whole entry, the tested form may be a part): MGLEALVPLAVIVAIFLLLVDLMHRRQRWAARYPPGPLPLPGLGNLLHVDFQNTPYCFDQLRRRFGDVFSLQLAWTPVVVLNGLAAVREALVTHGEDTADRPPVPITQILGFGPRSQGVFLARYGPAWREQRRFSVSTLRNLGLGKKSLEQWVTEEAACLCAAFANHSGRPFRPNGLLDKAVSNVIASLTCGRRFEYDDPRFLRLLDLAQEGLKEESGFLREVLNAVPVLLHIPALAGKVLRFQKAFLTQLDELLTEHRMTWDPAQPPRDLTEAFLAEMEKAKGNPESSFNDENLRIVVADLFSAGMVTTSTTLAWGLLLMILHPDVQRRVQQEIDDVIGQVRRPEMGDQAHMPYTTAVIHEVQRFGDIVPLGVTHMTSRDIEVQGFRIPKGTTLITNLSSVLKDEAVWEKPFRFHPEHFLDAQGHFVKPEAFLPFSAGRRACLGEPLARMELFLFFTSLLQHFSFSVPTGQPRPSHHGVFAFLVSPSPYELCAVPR

[5] = emulsion with TRIS buffer 20 mM, pH 9, 2-hour infusion, 2 mg/kg (conc. 5 mg/mL), 0 h
[6] = emulsion with TRIS buffer 20 mM, pH 9, 2-hour infusion, 2 mg/kg (conc. 5 mg/mL), 48 h
[7] = emulsion with TRIS buffer 20 mM, pH 9, 2-hour infusion, 6 mg/kg (conc. 5 mg/mL), 0 h
[8] = emulsion with TRIS buffer 20 mM, pH 9, 2-hour infusion, 6 mg/kg (conc. 5 mg/mL), 48 h
[9] = solution in acetate mannitol buffer, pH 4, 2 hour infusion, 1 mg/kg (conc. 0.1 mg/mL), 0 h
[10] = solution in acetate mannitol buffer, pH 4, 2 hour infusion, 1 mg/kg (conc. 0.1 mg/mL), 48 h

For COc1ccc(CN[C@H](C)c2ccccc2)cc1-c1ccc(C(F)(F)F)cc1 [Compound A, (1R)—N-((6-(methyloxy)-4′-(trifluoromethyl)-1,1′-biphenyl-3-yl)methyl)-1-phenylethanamine], the local venous toxicity (rabbit ear vein; dosed as a solution) was “evidence of local venous toxicity”, the “effect on the vasculature” value (rabbit ear vein; emulsion containing Compound A) was “protective effect on the vasculature” and the Edema (rabbit ear vein; [5]) was 0.0 ± 0.0. The Erythema (rabbit ear vein; [5]) was 0.0 ± 0.0, the Edema (rabbit ear vein; [6]) was 0.0 ± 0.0 and the Erythema (rabbit ear vein; [6]) was 0.0 ± 0.0. For the same compound, the Edema (rabbit ear vein; [7]) was 0.0 ± 0.0, the Erythema (rabbit ear vein; [7]) was 0.0 ± 0.0 and the Edema (rabbit ear vein; [8]) was 0.0 ± 0.0. The Erythema (rabbit ear vein; [8]) was 0.0 ± 0.0, the “Histopathology: severity and incidence of edema, hemorrhage and subacute inflammation” value (rabbit ear vein; emulsion with TRIS buffer 20 mM, pH 9, 2-hour infusion, 2 and 6 mg/kg, compared to the solution) was “much lower in all thee animals as compared” and the Edema (rabbit ear vein; [9]) was 0.0 ± 0.0. It also gave an Erythema (rabbit ear vein; [9]) of 0.0 ± 0.0, an Edema (rabbit ear vein; [10]) of 0.0 ± 0.0 and an Erythema (rabbit ear vein; [10]) of 1.3 ± 2.3. For the same compound, the “Histopathology: severity and incidence of edema, hemorrhage and subacute inflammation” value (rabbit ear vein; solution in acetate mannitol buffer, pH 4, 2 hour infusion, 1 mg/kg, compared to placebo) was “higher in the ears treated with Compound A”, the “change in particle size” value [1] was “No change” and the “difference in concentration of drug before or after exposure to tubing” value ([2]; 0.2 mg/mL emulsion (5% soybean oil, 2% lecithin, 2% glycerin, 20 mM TRIS, pH 9), 1 hour) was “no significant difference”. For the same compound, the “drug concentration after 1 hour holding in the tubing” value ([2]; 0.2 mg/mL solution in acetate mannitol buffer at pH 4, ambient temperature) was “about 50 % of initial concentration”, the solubility at 18 h [3] was greater than 300 mg/mL and the “pH at which emulsion reaches neutral charge” value [4] was “reaches neutral charge at a higher pH”.

COc1ccc(CN[C@H](C)c2cccc3ccccc23)cc1-c1ccc(OC(F)(F)F)cc1 [Compound B, (1R)—N-((6-(methyloxy)-4′-((trifluoromethyl)oxy)-1,1′-biphenyl-3-yl)methyl)-1-(1-naphthalenyl)ethanamine] showed a solubility at 18 h [3] of 50 mg/mL (≈ 111 mM).

In the case of COc1ccc(CN[C@H](C)c2ccccc2)cc1-c1ccc(OC(F)(F)F)cc1 [Compound C, (1R)—N-((6-(methyloxy)-4′-((trifluoromethyl)oxy)-1,1′-biphenyl-3-yl)methyl)-1-phenylethanamine], the solubility at 18 h [3] is reported as greater than 300 mg/mL.

In the case of COc1ccc(CN[C@H](C)c2cccc(F)c2)cc1-c1ccc(C(F)(F)F)cc1 [Compound D, (1R)-1-(3-fluorophenyl)-N-((6-(methyloxy)-4′-(trifluoromethyl)-1,1′-biphenyl-3-yl)methyl)ethanamine], the solubility at 18 h [3] is reported as greater than 300 mg/mL.

COc1ccc(CN[C@H](C)c2cccc(Cl)c2)cc1-c1ccc(C(F)(F)F)cc1 [Compound E, (1R)-1-(3-chlorophenyl)-N-((6-(methyloxy)-4′-(trifluoromethyl)-1,1′-biphenyl-3-yl)methyl)ethanamine] gave a solubility at 18 h [3] greater than 300 mg/mL.

In the case of CCn1cc(-c2cccc(C(F)(F)F)c2)c2cc(CN[C@H](C)c3ccccc3)ccc21 [Compound F, (1R)—N-((1-ethyl-3-(3-(trifluoromethyl)phenyl)-1H-indol-5-yl)methyl)-1-phenylethanamine], the solubility at 18 h [3] is reported as greater than 300 mg/mL.

Compound COc1ccc([C@@H](C)N[C@H](C)c2ccccc2)cc1-c1ccc(C(F)(F)F)cc1 [Compound G] has a Solubility [3] greater than 50 mg/mL.

C[C@@H](NCc1ccc(Cl)c(-c2ccc(OC(F)(F)F)cc2)c1)c1cccc2ccccc12 [Compound H, (1R)—N-((6-chloro-4′-((trifluoromethyl)oxy)-3-biphenyl)methyl)-1-(1-naphthalenyl)ethanolamine] showed a Solubility [3] greater than 50 mg/mL.

In the case of C[C@@H](NCCCc1cccc(C(F)(F)F)c1)c1cccc2ccccc12 [Sensipar], the metabolism (cytochrome P450 2D6) is given as “metabolized by cytochrome P450 2D6”.

Source: US8779004B2, “Stable emulsion formulations” (Amgen, Inc., priority 2006, dated 2014)
